Patent US20150133411A1, “COMPOUNDS WITH TRPV4 ACTIVITY, COMPOSITIONS AND ASSOCIATED METHODS THEREOF” (The University of Utah Research Foundation, priority 2012, published 2015)

Tested on: retinal ganglion cells
Assay: In vivo intraocular injection of GSK, NeuN+ RGC count
Settings: intraocular GSK, 48 hours
Protocol: In this experiment, GSK (100-300 nM) was injected intraocularly with a Hamilton syringe. Retinas were isolated after 48 hours, fixed and labeled with the RGC marker antibody NeuN. NeuN-immunopositive somata in the ganglion cell layer, shown in the panel on the right, were counted. The bar graph represents quantification of NeuN^+ cells in the indicated experimental groups.

Cc1c(C(=O)Nc2cccc(C(F)(F)F)c2)cc(-c2ccccc2)n1CCCN1CCOCC1 [Compound 1, N-(3-(trifluoromethyl)phenyl)-2-methyl-1-(3-morpholinopropyl)-5-phenyl-1H-pyrrole-3-carboxamide]
effect on GSK-induced degeneration of RGC: blocked
